From patent publication US20210236443A1, “METHOD OF TREATMENT OF NON-ALCOHOLIC STEATOHEPATITIS, NASH” (KRISH BIOTECH RESEARCH PRIVATE LIMITED, priority 2018, published 2021)

Key:
TNFα = TNFα release in LPS-stimulated RAW 264.7 cells; type: cell-based; conditions: Mus musculus, RAW264.7, LPS 10 ng/ml, 2.5 hours, compound pre-incubation 1 hour, read-out: TNF-alpha IC50
Method: (§1) Assay for TNFα and MCP-1 Release in RAW 264.7 Cells:
(§2) Cells were seeded at a density of 50000 cells/well/100 μl in a 96 well plate and left overnight in the CO2 incubator under normal cell culture conditions for adherence. Next day, old media was removed and fresh media added per well with compounds in duplicate for 1 hour with 0.1% DMSO. Cells were stimulated with LPS (Lipopolysaccharides) at 10 ng/ml and incubated at cell culture conditions for 2.5 hours. Post incubation, the supernatant was collected in fresh 96 well plate and stored at −80 degree for TNF-α, and MCP-1 estimation.
(§3) The dose-response curve was analyzed using Sigma Plot/Graph Pad. The IC50 (concentration of the test compounds where 50% of compounds' maximal activity is observed) values were calculated from the dose-response curve.

MCP-1 = MCP-1 release in LPS-stimulated RAW 264.7 cells; type: cell-based; conditions: Mus musculus, RAW264.7, LPS 10 ng/ml, 2.5 hours, compound pre-incubation 1 hour
Method: as §1, §2, §3

IC50 (TNFα)	IC50 (MCP-1)	Structure (SMILES)
> 10 µM	2.04 µM	O=C(O)CCCc1ccc(OCc2cc(F)ccc2-c2ccc(C3CC3)s2)cc1 [SI. No. 8, 4-(4-((2-(5-Cyclopropylthiophen-2-yl)-S-fluorobenzyl)oxy)phenyl)butanoic acid]
5.65 µM	0.29 µM	CC1(c2ccc(-c3ccc(F)cc3COc3ccc(CCCC(=O)O)cc3)cc2)CC1 [SI. No. 2, 4-(4-((4-Fluoro-4′-(1-methylcyclopropyl)-[1,1′-biphenyl]-2-yl)methoxy)phenyl)butanoic acid]
0.63 µM	0.23 µM	O=C(O)CCCc1ccc(OCc2cc(F)ccc2-c2ncc(C3CC3)s2)cc1 [SI. No. 24, 4-(4-((2-(5-Cyclopropylthiazol-2-yl)-S-fluorobenzyl)oxy)phenyl)butanoic acid]
0.66 µM	1.08 µM	CC1(c2ccc(-c3ccc(F)cc3COc3ccc(CCCC(=O)O)cc3)s2)CC1 [SI. No. 20, 4-(4-((5-Fluoro-2-(5-(1-methylcyclopropyl)thiophen-2-yl)benzyl)oxy)phenyl) butanoic acid]
